Consider 1 compound from patent US5559132A, “Carboxamide derivatives for treating asthma” (Zeneca Limited, priority 1993, dated 1996).

For this test, the target named is T1, guinea pig trachea (NKA or [β-ala8]-NKA(4-10) as agonist) (Cavia porcellus, UniProt Q64077).
T1 construct: The trachea are removed, trimmed of excess tissue and divided into two segments; from tissue; host or cells: guinea pig trachea rings (male animals)
T1 sequence (Q64077 1-402): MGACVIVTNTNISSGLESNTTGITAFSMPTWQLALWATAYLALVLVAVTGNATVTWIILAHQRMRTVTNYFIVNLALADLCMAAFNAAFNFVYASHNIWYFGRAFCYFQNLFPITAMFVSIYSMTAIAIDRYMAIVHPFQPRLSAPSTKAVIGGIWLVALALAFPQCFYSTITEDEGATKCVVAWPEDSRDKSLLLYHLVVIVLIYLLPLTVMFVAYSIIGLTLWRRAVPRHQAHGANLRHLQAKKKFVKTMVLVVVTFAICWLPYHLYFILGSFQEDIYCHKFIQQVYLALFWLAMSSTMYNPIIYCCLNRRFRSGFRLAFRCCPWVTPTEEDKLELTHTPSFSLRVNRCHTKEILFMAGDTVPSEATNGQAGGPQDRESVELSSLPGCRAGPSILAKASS
Briefly: Guinea Pig Assay (Test B): antagonism of NKA or [β-ala8]-NKA(4-10) contraction in guinea pig trachea. The note with it: -log molar KB. Here is the method: In the test described below either NKA or [β-ala^8 ]-NKA(4-10) is used as an agonist. The chosen agonist is refered to as AG throughout the description.
Male guinea pigs are killed by a sharp blow to the back of the head. The trachea are removed, trimmed of excess tissue and divided into two segments. […] Initial tension placed on each tissue is 1 g, which is maintained throughout a 0.5 to 1.5 hour equilibration period before addition of other drugs. Contractile responses are measured on a Grass polygraph via Grass FT-03 force transducers.
Tissues are challenged repetitively with a single concentration of AG (10 nM) with intervening 30 min periods with washing to allow the tension to return to baseline levels. […] Percent inhibition is determined when a Compound produces a statistically significant (p<0.05) reduction of the contraction and is calculated using the second contractile response as 100%.
Potencies of selected Compounds are evaluated by calculating apparent dissociation constants (KB) for each concentration tested using the standard equation: […]
where dose ratio=antilog[(AG -log molar EC50 without Compound)--(AG -log molar EC50 with Compound)]. The KB values may be converted to the negative logarithms and expressed as -log molar KB (i.e. pKB). […] The EC50 values are converted to the negative logarithms and expressed as -log molar EC50. […]

One may read the Kb as the affinity of an antagonist, worked out from how it opposes an agonist. With `CC(=O)N(C1CCCCC1)C1CCN(CCC(CN(C)C(=O)c2ccccc2)c2ccc(Cl)c(Cl)c2)CC1` (stereo not shown) [Example 4, N-[4-[4-(N-Cyclohexylacetamido)piperidino]-2-(3,4-dichlorophenyl)butyl]-N-methylbenzamide], the Kb is 20 nM.
